Results taken from US20240002463A1, “CHEMOGENETIC RECEPTORS AND METHODS OF MAKING AND USING” (Howard Hughes Medical Institute, priority 2022, published 2024).
Where two headings read alike, the source gives them in different places.

How the values were obtained:
dopamine release = details: cited from earlier work
α7-5HT3 [1] = target: T1, α7-5HT3 (Homo sapiens, UniProt P36544, M226I/T225I); test: agonist potency/activity at unmodified α7-5HT3 chimeric channel; assay type: cell-based; details: agonist activity at unmodified α7-5HT3; read-out: EC50α7-5HT3
T1 construct: expressed in transfected cells; host or cells: HEK-293 (transient transfection)

α7-GlyR = target: T2, α7-GlyR (Homo sapiens, UniProt P36544); test: agonist potency/activity at unmodified α7-GlyR chimeric channel; assay type: cell-based
T2 construct: expressed in transfected cells; host or cells: HEK-293 (transient transfection)

α7-5HT3 [2] = target: T3, α7-5HT3 (Homo sapiens, UniProt P36544); test: agonist potency/activity at unmodified α7-5HT3 chimeric channel; assay type: cell-based
T3 construct: expressed in transfected cells; host or cells: HEK-293 (transient transfection)

[3] = cited from earlier work
[4] = rat; estimated; cited from earlier work
[5] = test system: hippocampal neurons expressing Gpr40; test: patch clamp electrophysiology of hippocampal neurons expressing Gpr40; assay type: cell-based, rat; details: 0.2 μM; FIG. 12A
Protocol: For engineered neuromodulation of neurons by fatty acids, a fatty acid […] (Gpr40) was expressed in hippocampal neurons. Neuron firing was increased in response to a fatty acid, palmitate (20 μM), as well as a synthetic Gpr40 agonist, GW9508 (0.2 μM) (FIG. 12A, 12B). For testing, embryonic rat hippocampal neurons are transfected by electroporation with a plasmid expressing GPR40 and an mCherry fluorescent protein. Then cells are plated on poly-D-lysine coated 13 mm dia #1 glass coverslips in the wells of a 24 well plates at 50,000 cells/well. Each well receives 60 μL of cell suspension plus 60 μL of NbActiv4 medium (BrainBits) and are incubated at 37 C in 5% CO2 for 4 hours for initial cell attachment. NbActiv4 media (1 mL) is then added to each well and cultures kept for the duration of the experiment. Weekly medium changes are done by replacing 0.5 mL medium from each well with fresh NbActiv4. Fluorescent cells are recorded by patch clamp electrophysiology while palmitate or GW9508 are perfused over the cells intermittently in a saline extracellular solution.

T3 sequence (P36544 with tags, fused parts or gaps T225I/M226I): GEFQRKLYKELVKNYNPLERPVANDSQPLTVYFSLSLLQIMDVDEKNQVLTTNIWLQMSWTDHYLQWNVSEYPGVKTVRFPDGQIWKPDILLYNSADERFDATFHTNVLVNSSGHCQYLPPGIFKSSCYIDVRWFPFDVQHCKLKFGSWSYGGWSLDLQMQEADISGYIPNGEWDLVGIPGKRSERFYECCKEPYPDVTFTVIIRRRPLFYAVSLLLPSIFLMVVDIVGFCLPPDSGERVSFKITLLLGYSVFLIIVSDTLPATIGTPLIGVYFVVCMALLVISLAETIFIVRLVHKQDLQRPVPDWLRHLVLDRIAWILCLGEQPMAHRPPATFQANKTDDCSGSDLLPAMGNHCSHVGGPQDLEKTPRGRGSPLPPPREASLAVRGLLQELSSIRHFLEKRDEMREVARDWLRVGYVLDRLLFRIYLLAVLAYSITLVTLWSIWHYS
T2 sequence (P36544 with tags, fused parts or gaps): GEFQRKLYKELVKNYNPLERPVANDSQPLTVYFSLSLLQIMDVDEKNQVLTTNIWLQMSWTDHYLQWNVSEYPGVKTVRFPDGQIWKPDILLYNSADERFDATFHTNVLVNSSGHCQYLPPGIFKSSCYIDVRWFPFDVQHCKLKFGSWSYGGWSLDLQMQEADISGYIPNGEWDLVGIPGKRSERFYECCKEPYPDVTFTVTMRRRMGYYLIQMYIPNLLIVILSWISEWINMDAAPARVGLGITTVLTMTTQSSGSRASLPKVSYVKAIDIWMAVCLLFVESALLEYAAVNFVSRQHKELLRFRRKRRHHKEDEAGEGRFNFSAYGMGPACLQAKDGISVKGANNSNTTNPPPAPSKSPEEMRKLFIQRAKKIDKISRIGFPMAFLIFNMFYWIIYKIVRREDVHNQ
T1 sequence (P36544 with tags, fused parts or gaps T225I/M226I): as the sequence (P36544 with tags, fused parts or gaps T225I/M226I) above

In the case of `CC(N)Cc1ccccc1` (centres unmarked) [amphetamine, Amphetamine], the EC50 (dopamine release; read-out: EC50 for DA release) is given as 500 nM.
For `C[N+](C)(C)CCO` [Choline], the EC50 (α7-5HT3 [1]) was 37000 nM and the EC50 (α7-GlyR) was 103000 nM.
For `CN1CCCC1c1cccnc1` (centres unmarked) [Nicotine], the EC50 (dopamine release; nucleus accumbens, read-out: EC50 dopamine release in the nucleus accumbens) is given as 480 nM.
In the case of `CN[C@@H](C)Cc1ccccc1` [methamphetamine, Methamphetamine], the “agonist activity at unmodified chimeric receptor α7-5HT3” value (α7-5HT3 [2]) is listed as “do not show agonist activity”, the “blood concentration during self-administration” value ([3]; in females) is listed as 900 nM and the “blood concentration during self-administration” value ([3]; in males) is listed as 700 nM.
For `COC(=O)[C@H]1[C@@H](OC(=O)c2ccccc2)C[C@@H]2CC[C@H]1N2C` [Cocaine], the “brain concentration maintained by self-administration” value [4] is listed as 10000 to 20000 nM.
With `CNC(C)Cc1ccc2c(c1)OCO2` (centres unmarked) [MDMA, 3,4-Methylenedioxy-methamphetamine] the “agonist activity at unmodified chimeric receptor α7-5HT3” value (α7-5HT3 [2]) was “do not show agonist activity”.
In the case of `CNC(C)C(=O)c1ccc2c(c1)OCO2` (centres unmarked) [methylone, Methylone], the EC50 (dopamine release; read-out: EC50 for DA release) is listed as about 400 nM.
For `COC(=O)C(c1ccccc1)C1CCCCN1` (centres unmarked) [methylphenidate, Methylphenidate], the EC50 (dopamine release; striatum, read-out: EC50 for release of DA in the striatum) is given as 10000 nM.
In the case of `CCCC(C(=O)c1ccc2c(c1)OCO2)N1CCCC1` (centres unmarked) [MDPV, methylenedioxypyrvalerone], the EC50 (dopamine release; read-out: EC50 for DA release) is given as 100 nM.
In the case of `O=C(O)CCc1ccc(NCc2cccc(Oc3ccccc3)c2)cc1` [GW9508], the neuron firing [5] is reported as “increased”.
In the case of `CNC(C)C(=O)c1ccc(C)cc1` (centres unmarked) [mephedrone, Mephedrone], the EC50 (dopamine release; read-out: EC50 for DA release) is listed as about 300 nM.
